In PubChem BioAssay (NCI):
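Test compounds were applied to cells in 96-well plates for 48 hours at 5 doses. TGI marks complete inhibition of growth.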

Key:
Assay in all cases: NCI-60 cell line screen, 48 h
[1] = system: SK-MEL-5 melanoma
[2] = system: SF-295 CNS
[3] = system: SF-268 CNS
[4] = system: OVCAR-8 ovarian
[5] = system: CAKI-1 renal
[6] = system: M19-MEL melanoma
[7] = system: SK-OV-3 ovarian
[8] = system: U251 CNS
[9] = system: DMS 273 small cell lung
[10] = system: HT29 colon
[11] = system: UO-31 renal
[12] = system: OVCAR-5 ovarian
[13] = system: KM20L2 colon
[14] = system: HCT-15 colon
[15] = system: SF-539 CNS
[16] = system: EKVX NSCLC
[17] = system: IGROV1 ovarian
[18] = system: 786-0 renal
[19] = system: A498 renal
[20] = system: TK-10 renal
[21] = system: NCI-H522 lung
[22] = system: HCC-2998 colon
[23] = system: MALME-3M melanoma
[24] = system: SK-MEL-2 melanoma
[25] = system: COLO 205 colon
[26] = system: NCI-H460 lung
[27] = system: SNB-78 CNS
[28] = system: K-562 leukemia
[29] = system: RXF-631 renal
[30] = system: UACC-257 melanoma
[31] = system: HOP-62 NSCLC
[32] = system: DMS 114 small cell lung
[33] = system: OVCAR-3 ovarian
[34] = system: LXFL 529 NSCLC
[35] = system: XF 498 CNS
[36] = system: RPMI-8226 leukemia
[37] = system: M14 melanoma
[38] = system: HOP-18 NSCLC
[39] = system: HCT-116 colon
[40] = system: A549 NSCLC
[41] = system: HOP-92 NSCLC
[42] = system: SW-620 colon
[43] = system: SNB-75 CNS
[44] = system: DLD-1 colon
[45] = system: MOLT-4 leukemia
[46] = system: UACC-62 melanoma
[47] = system: NCI-H23 lung
[48] = system: SK-MEL-28 melanoma
[49] = system: OVCAR-4 ovarian
[50] = system: RXF 393 renal
[51] = system: HL-60(TB) leukemia
[52] = system: ACHN renal
[53] = system: SNB-19 CNS
[54] = system: SN12C renal
[55] = system: CCRF-CEM leukemia
[56] = system: KM12 colon
[57] = system: LOX IMVI melanoma
[58] = system: NCI-H226 lung

SMILES: c1ccc2c3c([nH]c2c1)[C@H]1C2CCCCN2CN1CC3 (some centres not stated)
- TGI [1]: > 100 µM
- TGI [2]: > 100 µM
- TGI [3]: > 100 µM
- TGI [4]: > 100 µM
- TGI [5]: > 100 µM
- TGI [6]: > 100 µM
- TGI [7]: > 100 µM
- TGI [8]: > 100 µM
- TGI [9]: > 100 µM
- TGI [10]: > 100 µM
- TGI [11]: > 100 µM
- TGI [12]: > 100 µM
- TGI [13]: > 100 µM
- TGI [14]: > 100 µM
- TGI [15]: > 100 µM
- TGI [16]: > 100 µM
- TGI [17]: > 100 µM
- TGI [18]: > 100 µM
- TGI [19]: > 100 µM
- TGI [20]: > 100 µM
- TGI [21]: > 100 µM
- TGI [22]: > 100 µM
- TGI [23]: > 100 µM
- TGI [24]: > 100 µM
- TGI [25]: > 100 µM
- TGI [26]: > 100 µM
- TGI [27]: > 100 µM
- TGI [28]: > 100 µM
- TGI [29]: > 100 µM
- TGI [30]: > 100 µM
- TGI [31]: > 100 µM
- TGI [32]: > 100 µM
- TGI [33]: > 100 µM
- TGI [34]: > 100 µM
- TGI [35]: > 100 µM
- TGI [36]: > 100 µM
- TGI [37]: > 100 µM
- TGI [38]: > 100 µM
- TGI [39]: > 100 µM
- TGI [40]: > 100 µM
- TGI [41]: > 100 µM
- TGI [42]: > 100 µM
- TGI [43]: > 100 µM
- TGI [44]: > 100 µM
- TGI [45]: > 100 µM
- TGI [46]: > 100 µM
- TGI [47]: > 100 µM
- TGI [48]: > 100 µM
- TGI [49]: > 100 µM
- TGI [50]: > 100 µM
- TGI [51]: > 100 µM
- TGI [52]: > 100 µM
- TGI [53]: > 100 µM
- TGI [54]: > 100 µM
- TGI [55]: > 100 µM

SMILES: COC(=O)C1Cc2c(n(C)c3ccccc23)C(CCC(=O)O)N1Cc1ccccc1 (configuration not stated)
- TGI [1]: 79.5 µM
- TGI [2]: 93.9 µM
- TGI [3]: 69.9 µM
- TGI [4]: > 100 µM
- TGI [5]: > 100 µM
- TGI [6]: > 100 µM
- TGI [7]: > 100 µM
- TGI [8]: > 100 µM
- TGI [9]: > 100 µM
- TGI [10]: > 100 µM
- TGI [11]: 51.4 µM
- TGI [12]: > 100 µM
- TGI [13]: > 100 µM
- TGI [14]: > 100 µM
- TGI [15]: 58 µM
- TGI [16]: > 100 µM
- TGI [17]: > 100 µM
- TGI [18]: > 100 µM
- TGI [19]: 76.5 µM
- TGI [20]: > 100 µM
- TGI [21]: 91.2 µM
- TGI [22]: > 100 µM
- TGI [23]: > 100 µM
- TGI [24]: > 100 µM
- TGI [25]: 71.9 µM
- TGI [26]: 80.7 µM
- TGI [27]: > 100 µM
- TGI [28]: > 100 µM
- TGI [29]: > 100 µM
- TGI [56]: 81.4 µM
- TGI [30]: > 100 µM
- TGI [31]: > 100 µM
- TGI [32]: 93.2 µM
- TGI [33]: 53.4 µM
- TGI [34]: > 100 µM
- TGI [35]: 72.5 µM
- TGI [36]: 75.2 µM
- TGI [37]: 62.2 µM
- TGI [39]: 43.2 µM
- TGI [40]: > 100 µM
- TGI [41]: 60.2 µM
- TGI [42]: > 100 µM
- TGI [43]: 89.7 µM
- TGI [44]: > 100 µM
- TGI [57]: > 100 µM
- TGI [45]: > 100 µM
- TGI [46]: 77.1 µM
- TGI [47]: 80.7 µM
- TGI [48]: 58.2 µM
- TGI [49]: > 100 µM
- TGI [50]: 89.7 µM
- TGI [51]: > 100 µM
- TGI [52]: 81.8 µM
- TGI [53]: 97.3 µM
- TGI [54]: > 100 µM
- TGI [58]: 75.2 µM
- TGI [55]: > 100 µM
